Test results as given in BindingDB's records for doi:10.1021/jm0510530 (Universit&#224, 2006).

Assays:
[1] = Vasodilator activity assessed as ability to relax phenylephrine-induced contraction of Wistar rat aortic strips
[2] = Vasodilator activity assessed as ability to relax phenylephrine-induced contraction of Wistar rat aortic strips in presence of 1 uM ODQ

Compound | EC50 [1] [nM] | EC50 [2] [nM]
Cc1c(C)c2c(c(C)c1O)CCC(C)(COc1no[n+]([O-])c1S(=O)(=O)c1ccccc1)O2 (centres undefined) [2-(4-Benzenesulfonyl-5-oxy-furazan-3-yloxymethyl)-2,5,7,8-tetramethyl-chroman-6-ol] | 44 | 670
COc1cc(CCCO[N+](=O)[O-])cc(OC)c1O [3-(4-hydroxy-3,5-dimethoxyphenyl)propyl nitrate] | 4300 | –
CN(CCCc1cc(C(C)(C)C)c(O)c(C(C)(C)C)c1)Cc1no[n+]([O-])c1C(N)=O [4-((N-(3-(3,5-di-tert-butyl-4-hydroxyphenyl)propyl)-N-methylamino)methyl)furoxan-3-carboxamide] | 410 | 7400
O=S(=O)(c1ccccc1)c1c(OCCCc2ccc(O)cc2)no[n+]1[O-] [4-(3-(3-benzenesulfonylfuroxan-4-yloxy)propyl)phenol] | 12 | 360
COc1cc(CCCOc2no[n+]([O-])c2S(=O)(=O)c2ccccc2)cc(OC)c1O [4-(3-(3-benzenesulfonylfuroxan-4-yloxy)propyl)-2,6-dimethoxyphenol] | 22 | 500
CC(C)(C)c1cc(CCCO[N+](=O)[O-])cc(C(C)(C)C)c1O [2,6-Di-tert-butyl-4-(3-nitrooxy-propyl)-phenol] | 40000 | –
NC(=O)c1c(CO)no[n+]1[O-] [4-hydroxymethyl-2-oxy-furazan-3-carboxylic acid amide] | 6300 | –
O=[N+]([O-])OCCCc1ccc(O)cc1 [4-(3-Nitrooxy-propyl)-phenol] | 1000 | –
CN(C)Cc1no[n+]([O-])c1C(N)=O [4-dimethylaminomethyl-2-oxy-furazan-3-carboxylic acid amide] | 3100 | –
Cc1c(C)c2c(c(C)c1O)CCC(C)(CN(C)Cc1no[n+]([O-])c1C(N)=O)O2 (centres undefined) [4-((N-((6-hydroxy-2,5,7,8-tetramethylchroman-2-yl)methyl)-N-methylamino)methyl)furoxan-3-carboxamide] | 1500 | 19000
Cc1c(C)c2c(c(C)c1O)CCC(C)(COCCCO[N+](=O)[O-])O2 (centres undefined) [2,5,7,8-Tetramethyl-2-(3-nitrooxy-propoxymethyl)-chroman-6-ol] | 1200 | 10000
CC(C)(C)c1cc(CCCOc2no[n+]([O-])c2S(=O)(=O)c2ccccc2)cc(C(C)(C)C)c1O [4-(3-(3-benzenesulfonylfuroxan-4-yloxy)propyl)-2,6-di-tertbutylphenol] | 110 | 4800
